PMC12134470 (International Journal of Nanomedicine, 2025)

Tests used:
[1] = cited from earlier work
MDA-MB-468 = assay: Antiproliferative activity, SRB assay; format: cell-based, human; conditions: 72 hours of exposure; tested 5–625 μM

Which Water solubility [1] does the source give for `CC(C)Cc1ccc([C@H](C)C(=O)O)cc1` [DXI, dexibuprofen] here?
The Water solubility was 68.4 µg/mL.

And the “IC50 MDA-MB-468” value (MDA-MB-468)?
The value was “did not express any cytotoxic effect”.
